Laboratory results from patent US11963964B2, “Small molecules for mouse satellite cell proliferation” (President and Fellows of Harvard College, priority 2011, dated 2024).
Entries after “also recorded” stand apart in the source; their conditions may differ.

Experiments:
human satellite cells = assay: Expansion of human satellite cells; format: cell-based
satellite cells (SMPs) [1] = assay: Satellite cell (SMP) proliferation with or without bFGF, 300 cells/well; format: cell-based, mouse; conditions: for additive or synergistic action with bFGF: compound plus bFGF versus bFGF alone (FIGS. 15-17, 28, 29)
satellite cells [2] = assay: Satellite cell proliferation screen and dose response, image-based cell count; parameters: species or system mouse; conditions: for activity on in vitro satellite cell proliferation (in words): screen hits tested in dose response / retest
primary fibroblasts = assay: Specificity test on Sca1-positive fibroblasts (Ki67); format: cell-based, mouse; conditions: primary fibroblasts (FIG. 23)
[3] = test system: satellite cells from aged and young tissue; assay: Proliferation of satellite cells from aged and young mice; format: cell-based, mouse; conditions: aged cells as well as young cells (FIGS. 24, 25)
myoblasts = assay: Myoblast differentiation in differentiation media (5% horse serum); format: cell-based; conditions: differentiation media comprising 5% horse serum (FIG. 39)
satellite cells [4] = assay: Satellite cell proliferation in combination with TGF-beta inhibitor (Alk5 inhibitor II); format: cell-based, mouse
satellite cells (SMPs) [5] = assay: Differentiation of compound-treated SMPs into myotubes (myosin heavy chain staining); format: cell-based, mouse; conditions: compound in proliferation conditions, then differentiation media
Description: CAG-EGFP satellite cells were grown in the inventors' standard proliferation conditions and exposed to compounds for four days. Under the inventors' standard proliferation conditions cells were cultured on laminin-coated plates in Ham's F-10 medium supplemented with 10% heat inactivated horse serum, 100Units/mL penicillin/100 ug/mL streptomycin, and 2 mM L-glutamine. Compounds were added the day after plating. The compounds and media were either refreshed daily or after three days. To differentiate cells and form myotubes, after four days in proliferation conditions, media was switched to high-glucose DMEM supplemented with 10% heat inactivated horse serum, 10% fetal bovine serum, 0.5% chick embryo extract, 100Units/mL penicillin/100 ug/mL streptomycin, and 2 mM L-glutamine. Cultures were grown in differentiation media for 3-5 days until myotube formation was observed, then fixed. Cultures were then switched into differentiation media and cultured another four days. They were then fixed and stained with anti-myosin heavy chain (red channel) and Hoechst (blue channel).
For these experiments, 300 cells were plated in each well at Day 0 in our standard proliferation media (10% horse serum in F-10). […]
The inventors also assessed effects these compounds were having on the identity of the satellite cells and their ability to differentiate in culture. […]

[6] = test system: satellite cells from Tg:Pax7-nGFP mice; assay: LINCS library screen for satellite cell proliferation (Hoechst 33342 high content imaging); format: cell-based, mouse; conditions: satellite cells cultured for 4 days, 96w plates
Description: This example includes a list of primary hits from a screen designed to identify compounds that promote satellite cell proliferation in vitro. The satellite cell is a skeletal muscle stem cell responsible for post-natal muscle growth and regeneration. […] The four compound libraries tested, LINCS 1, 2, 3 and 4, were provided to us by the Sorger lab at Harvard Medical School. The Sorger lab is a member of the LINCS (Library of Integrated Network-Based Cellular Signatures) Consortium, which is an NIH initiative aiming to generate public data to further research of therapeutically relevant cellular pathways. LINCS 1, 2, and 4 contain kinase inhibitors, while LINCS 3 contains epigenetic modifiers.
FIG. 50 identifies small molecules that promote satellite cell proliferation screen in this Example. (A) Chemical screen experimental schematic outlining FACS isolation and compound library treatment of satellite cells. (B) Representative dose response curves from four of the top ten compounds. Top ten compounds were chosen based on highest fold change of cell proliferation relative to vehicle controls. Proliferation was assessed via high content imaging using Hoechst 33342 as a cell marker. (C) Representative fluorescent images of FACS sorted satellite cells from Tg:Pax7-nGFP mice on 96w plates cultured for 4 days and treated with vehicle, compound or positive control (Jak3 inhibitor 6). Optimal treatment concentration for each compound was determined in dose response; 3 uM for XMD8-92, 5 uM for SB23906, 800 nM for XMD11-50, and 400 nM for Vorinostat. Hoechst 33342 was used as a cell marker. Scale bars denote 100 um. (D) Fold change relative to vehicle control for several compounds that promote satellite cell expansion.
Satellite cells were isolated from intact limb muscle and prepared for fluorescence activated cell sorting (FACS) as described previously (Rocheteau et al., 2012). FACS was performed at Harvard University at the Bauer Flow Cytometry Core Facility on a Beckman Coulter MoFlo Legacy (Beckman Coulter). Satellite cells were sorted into Eppendorf tubes, and plated onto 96 well plates by hand (Greiner). Plates were pre-coated at 37° C. for 4 hours with […] laminin diluted in PBS. Sorted cells were cultured in StemSpan SFEM II basal medium (Stem Cell Technologies) supplemented with 0.05 ng/mL basic fibroblast growth factor (bFGF, Life Technologies). Wells for the positive control were treated with 600 nM Jak3 inhibitor IV (EMD Millipore). For screening and dose response follow up, cells were plated at 150 cells/well.
The day cells were plated was considered Day 0. Compounds were added on Day 1. For screening and dose response follow up, cells were incubated without media change until Day 4 and plates were prepared for imaging. […]

CC(C)(C)c1cc(NC(=O)Nc2ccc(-c3cn4c(n3)sc3cc(OCCN5CCOCC5)ccc34)cc2)no1 [AC220, quizartinib]
expansion of human satellite cells (in words) (human satellite cells): ability to expand human satellite cells at low doses

CCCC1O[C@@H]2C[C@H]3[C@@H]4CCC5=CC(=O)C=C[C@]5(C)[C@H]4[C@@H](O)C[C@]3(C)[C@]2(C(=O)CO)O1 (stereo partly shown) [Budesonide]
additive or synergistic action with bFGF (satellite cells (SMPs) [1]): no additional increase
activity on in vitro satellite cell proliferation (in words) (satellite cells [2]): identified and validated; also recorded: proliferation levels much greater than that seen in the negative control

C[C@]12O[C@H](C[C@]1(O)CO)n1c3ccccc3c3c4c(c5c6ccccc6n2c5c31)CNC4=O [CEP701, Lestaurtinib]
effect on fibroblast proliferation (primary fibroblasts): no effect
increase in proliferation, CEP701 and bFGF together (satellite cells (SMPs) [1]; 0.05 μM CEP701 + 5 ng/mL bFGF daily, 300 cells/well, fixed four days after plating (FIG. 14)): 8 fold
optimum concentration [3]: 50 nM
proliferation of the input SMP cells (level) (satellite cells [2]; retest, DMSO-treated cells 1±0.3 in both trials): ~4.7±1.4

OC[C@H]1O[C@@H](n2cnc3c(NC4CCCC4)ncnc32)[C@H](O)[C@@H]1O [N6-cyclopentyladenosine]
myoblast differentiation (myoblasts): drive myoblast differentiation
additive effect with TGF-beta inhibitor (Alk5 inhibitor II) (satellite cells [4]; compound plus Alk5 inhibitor II (FIGS. 21, 32)): slight increase in proliferation
increase in the cell number, combination of CPA and bFGF (satellite cells (SMPs) [1]; CPA 30 μM + bFGF (FIG. 28)): fifteen-fold
additive or synergistic action with bFGF (satellite cells (SMPs) [1]): seen to synergize with bFGF
ability of treated cells to differentiate and fuse to form myotubes (satellite cells (SMPs) [5]): able to form myotubes
activity on in vitro satellite cell proliferation (in words) (satellite cells [2]): identified and validated; also recorded: increase in vitro satellite cell proliferation
activity on in vitro satellite cell proliferation (in words) (satellite cells [2]; listed as CPA): proliferation levels much greater than that seen in the negative control

COc1nccc(-c2c(-c3ccc(F)cc3)ncn2C2CCC(O)CC2)n1 (stereo not shown) [SB23906]
optimal treatment concentration determined in dose response [6]: 5 µM

N#C/C(=C\c1ccc(O)c(O)c1)C(=O)NCc1ccccc1 [Tyr AG490]
myoblast differentiation (myoblasts): drive myoblast differentiation

O=C(CCCCCCC(=O)Nc1ccccc1)NO [Vorinostat, suberoylanilide hydroxamic acid]
optimal treatment concentration determined in dose response [6]: 0.4 µM

CCOc1cc(N2CCC(O)CC2)ccc1Nc1ncc2c(n1)N(C)c1ccccc1C(=O)N2C [XMD8-92]
optimal treatment concentration determined in dose response [6]: 3 µM

COc1cc(C(=O)N2CCC(N3CCN(C)CC3)CC2)ccc1Nc1ncc2c(n1)N(C)c1ccccc1C(=O)N2C [XMD11-50]
optimal treatment concentration determined in dose response [6]: 0.8 µM

Alk5 inhibitor II
proliferation on addition of Alk5 inhibitor II to the cultures (satellite cells [4]; Alk5 inhibitor II alone): slight increase in proliferation

bFGF: basic fibroblast growth factor, positive control
increase in the cell number, bFGF alone (satellite cells (SMPs) [1]; FIG. 28): six-fold
ability of treated cells to differentiate and fuse to form myotubes (satellite cells (SMPs) [5]): able to form large myotubes
number of cells per well at the end of the assay (satellite cells [2]; 50 cells/well plated, Day 4, DMSO-treated wells around 50 cells): 150-250 cells
level of proliferation, fold change over the DMSO vehicle control (satellite cells [2]; FIG. 3A, positive control, DMSO 1±0.3): 3.4±0.9 fold change
level of proliferation, fold change over the DMSO vehicle control (normalized value) (satellite cells [2]; FIG. 3B, re-supplied compounds dose response, 50 cells/well, positive control, DMSO 1±0.4): 5.6±1.7 fold change
